Measurements as given in patent US11117939B2, “Polypeptides and antibodies to treat skin conditions associated with overproduction of sebum” (University of Sasketchewan, priority 2015, dated 2021).

Tested on: SZ95 sebocytes
Experiment: Detection of lipids (nile red fluorescence) in SZ95 sebocytes
Assay type: cell-based, human
Conditions: for production of neutral (sebaceous) lipids: 24 vs 48 hours
Experimental: C., Seltmann, H., Neitzel, H. & Orfanos, C. E. (1999) J. Invest. Dermatol. 113, 1011-1020], were maintained in Sebomed Basal Medium (Biochrom, Berlin) supplemented with 5 ng/ml human epidermal growth factor (Sigma), 10% heat inactivated FCS (Biochrom GmbH, Berlin, Germany), 50 ug/ml gentamicin (GIBCO/BRL), and 1 mM Ca2+, in a humidified atmosphere of 5% CO2 at 37° C. Shortly before the experiments were performed, BSA-medium [constituted of Sebomed Basal Medium supplemented with 1 mg/ml fatty acid-free BSA (Boehringer Mannheim), 1 mM Ca2+, and 10^-6 M linoleic acid (Sigma)] or Sebomed Complete Medium (Biochrom) was added to the cells. The SZ95 human sebocytes used for the experiments were between passages 31 and 35. The cells were subcultured at 60-70% confluence. The cultures were maintained at 37° C. in a humidified 5% CO2 incubator and the medium was replaced every 2-3 days.
The cells were cultured in 96-well tissue culture plates at a density of 2,000 cells per well for 2 days. The wells were then washed with PBS, and Sebomed Complete Medium was added. After 2 days, the medium was harvested, and fresh medium without or with INDIP peptide (SEQ ID NO: 2) at a concentration of 0, 0.1, 1, 10, or 20 μM in the presence and absence of Linoleic acid (5×10^−5 and 10^−4 M) and Testosterone (2×10^−8 M) was given to the cells. The supernatants were harvested 24 or 48 h later; the wells were washed twice with PBS, and 100 μl of a 10 μg/ml nile red solution in PBS was added to each well. 10 uM of scrambled INDIP peptide (i.e. a scrambled version of SEQ ID NO: 2) was used as the negative control peptide. The plates were then incubated at 37° C. for 30 min, and the released fluorescence was read on a Molecular Devices SPECTRAmax Gemini spectrofluorometer. The results are presented as percentages of the absolute fluorescence units in comparison with the controls, using 485 nm excitation and 565 nm emission filters for neutral lipids and 540 nm excitation and 620 nm emission filters for polar lipids. Experiments were performed in triplicate, with 10 wells evaluated for each data point in each experiment.

YGRKKRRQRRRGEPHKFKREW ((1)..(11) Tat; (12)..(21) Insig-1) [INDIP peptide (SEQ ID NO: 2), PTD-fused (TAT protein transduction domain) Insig-1 ubiquitination region peptide]
production of neutral (sebaceous) lipids (10 μM peptide, occasionally, absence or presence of linoleic acid and testosterone): significantly reduced | production of neutral (sebaceous) lipids (20 μM peptide, greater effect as time progressed, absence or presence of linoleic acid and testosterone): significantly reduced | sebaceous differentiation (all conditions tested, with and without linoleic acid and testosterone): able to reduce | lipid production (application to SZ95 sebocytes in vitro): Significant Reduction | polar lipids (membrane synthesis, synthetic activity of the cells) (concomitant with the neutral lipid reduction, absence or presence of linoleic acid and testosterone): concomitant reduction
